What was measured:
[1] = Test Example 8: metabolic stability test; type: in vitro ADME, human
Method: The extent of metabolization of the compound according to the present invention in the liver was evaluated by reacting commercially available pooled human liver microsomes with the compound according to the present invention for a fixed time and calculating the remaining percentage by comparing the reaction sample with an unreacted sample.
The reaction (oxidative reaction) was conducted for 0 min or 30 min at 37° C. in the presence of 1 mmol/L of NADPH, in a 0.2 mL buffer solution containing 0.5 mg of human liver microsome protein/mL (50 mmol/L Tris-HCl pH 7.4, 150 mmol/L potassium chloride, 10 mmol/L magnesium chloride). After the reaction, 50 μL of reaction liquid were added to 100 μL of methanol/acetonitrile=1/1 (v/v) solution, mixed, and centrifuged for 15 minutes at 3000 rpm. The compound according to the present invention in the centrifuged supernatant was quantified using LC/MS/MS or solid phase extraction (SPE)/MS; the residual amount of the compound according to the present invention after the reaction was calculated, taking the amount of the compound at the 0 min reaction point as 100%.

[2] = system: HIV mutant strain 1 (E138K/G140S/Q148H/N155H); test: Test Example 2: resistance evaluation test (HeLa-CD4 reporter), mutant strain 1; type: cell-based; settings: FC=EC50 of mutant strain/EC50 of wild strain; HeLa-CD4 cells
Method: (§1) A serial dilution series of test samples in 96-well microplates was prepared (50 […]).
(§2) 2.5×10^4/mL of HeLa-CD4 cell suspension was dispensed into each of the microplates containing test sample, in the amount of 100 μL/well, and HIV virus liquid (wild strain and mutant strain) was then dispensed in an amount of 50 μL/well. Mixing was performed using a plate mixer and culturing was performed for three days in a CO2 incubator. After removing the cultured supernatant of each well by suction, 100 μL of the cell solution buffer in the reporter measurement kit was dispensed thereto, and freezing was conducted in a refrigerator (−80° C.). The plates frozen in the refrigerator were defrosted at room temperature, then mixed using a plate mixer and centrifuged for 5 min at 1,200 rpm. The supernatant of each well was divided to 96-well microplates (BLACK) in the amount of 20 μL in each case. The chemiluminescence reagent in the reporter assay kit was dispensed in the amount of 100 μL in each case, and, after reacting for about 1 h at room temperature, the amount of luminescence was measured using a MicroBeta TRILUX.
(§3) The degree of resistance (fold change (FC)) of each mutant strain was also calculated using the following formula. FC=EC50 of mutant strain/EC50 of wild strain (Results)
(§4) The results of the example compounds relating to formula (I) of (A) are shown below. The […] in respect of mutant strain 1 (E138K/G140S/Q148H/N155H) and the FC in respect of mutant strain 2 (E92Q/E138T/G140S/Q148H) are shown in the Table.

[3] = system: HIV mutant strain 2 (E92Q/E138T/G140S/Q148H); test: Test Example 2: resistance evaluation test (HeLa-CD4 reporter), mutant strain 2; type: cell-based; settings: FC=EC50 of mutant strain/EC50 of wild strain; HeLa-CD4 cells
Method: as §1, §2, §3, §4

[4] = pooled human liver microsomes, 30 min at 37° C., NADPH, compound concentration 0.5 μmol/L
[5] = human, microsomes, 0.5 h, 0.5 μmol/L, pH 7.4

SMILES	Remaining percentage [1, 4] [%]	FC in respect of mutant strain 1 (E138K/G140S/Q148H/N155H) [2]	FC in respect of mutant strain 2 (E92Q/E138T/G140S/Q148H) [3]	Remaining percentage [1, 5] [%]
CCN1C(=O)c2c(O)c(=O)c(C(=O)NCc3ccc(F)cc3F)cn2N2C[C@@H](COC)C[C@@H]12 [II-056]	94.3	15	28	
CN1C(=O)c2c(O)c(=O)c(C(=O)NCc3cccc(Cl)c3F)cn2N2[C@H]3COC[C@H]3C[C@@H]12 [II-132]		76	17	101
CC(C)N1C(=O)c2c(O)c(=O)c(C(=O)NCc3ccccc3F)cn2N2C[C@@H]3CC[C@@H](O3)[C@@H]12 [II-009]	87	5.6	6.4	
CCN1C(=O)c2c(O)c(=O)c(C(=O)NCc3ccc(F)cc3F)cn2N2C[C@H](COC)C[C@@H]12 [II-039]	84.3	48	62	
CC(C)N1C(=O)c2c(O)c(=O)c(C(=O)NCc3ccc(F)cc3F)cn2N2C[C@@H]3CC[C@@H](O3)[C@@H]12 [II-016]	89.1	6.6	9	
CC(C)N1C(=O)c2c(O)c(=O)c(C(=O)NCc3c(F)cc(F)cc3F)cn2N2[C@H]3COC[C@H]3C[C@@H]12 [II-133]		17	34	73.3
CN1C(=O)c2c(O)c(=O)c(C(=O)NCc3cccc(Cl)c3F)cn2N2C[C@@H]3CCC[C@@H](C3)[C@@H]12 [II-139]	75.4	18	10	
CCN1C(=O)c2c(O)c(=O)c(C(=O)NCc3c(F)cc(F)cc3F)cn2N2C[C@@H]3CC[C@@H](O3)[C@@H]12 [II-041]	88.4	17	28	
CCN1C(=O)c2c(O)c(=O)c(C(=O)NCc3c(F)cc(F)cc3F)cn2N2C[C@@H]3CC[C@@H](C3)[C@@H]12 [II-014]	74.3	5.7	7.3	
CCN1C(=O)c2c(O)c(=O)c(C(=O)NCc3ccc(F)cc3F)cn2N2[C@H]3COC[C@H]3C[C@@H]12 [II-038]		78	110	77.2
CC(C)N1C(=O)c2c(O)c(=O)c(C(=O)NCc3c(F)cc(F)cc3F)cn2N2C[C@@H]3CC[C@@H](O3)[C@@H]12 [II-002]	80.2	3.1	7.4	
CN1C(=O)c2c(O)c(=O)c(C(=O)NCc3cccc(F)c3F)cn2N2CCCC[C@@H]12 [II-091]	96.9	48	17	
CN1C(=O)c2c(O)c(=O)c(C(=O)NCc3cccc(Cl)c3F)cn2N2CCCC[C@@]12C [II-129]	88.6	44	26	
CCN1C(=O)c2c(O)c(=O)c(C(=O)NCc3ccc(F)cc3F)cn2N2CC[C@H](C)C[C@@H]12 [II-064]	104	27	22	
CCN1C(=O)c2c(O)c(=O)c(C(=O)NCc3ccc(F)cc3F)cn2N2CCCC[C@@]12C [Compound I-024]	92.5	24	16	
CCN1C(=O)c2c(O)c(=O)c(C(=O)NCc3ccc(F)cc3F)cn2N2C[C@@H]3CCC[C@@H](O3)[C@@H]12 [II-150]	98.6	26	16	

SMILES	Remaining percentage [1, 4] [%]	FC in respect of mutant strain 1 (E138K/G140S/Q148H/N155H) [2]	FC in respect of mutant strain 2 (E92Q/E138T/G140S/Q148H) [3]	Remaining percentage [1, 5] [%]
CCN1C(=O)c2c(O)c(=O)c(C(=O)NCc3c(F)cc(F)cc3F)cn2N2C[C@@H](C)C[C@@H]12 [II-043]	83.2	18	17	
CCN1C(=O)c2c(O)c(=O)c(C(=O)NCc3ccc(F)nc3F)cn2N2C[C@@H]3CC[C@@H](O3)[C@@H]12 [II-152]	105	36	25	
CCN1C(=O)c2c(O)c(=O)c(C(=O)NCc3ccc(F)cc3F)cn2N2[C@H](COC)CC[C@@H]12 [II-084]	97.5	39	38	
CCN1C(=O)c2c(O)c(=O)c(C(=O)NCc3ccc(F)cc3F)cn2N2C[C@@H]3CCC[C@@H](C3)[C@@H]12 [II-013]	77.6	6.1	8.7	
CN1C(=O)c2c(O)c(=O)c(C(=O)NCc3cccc(Cl)c3F)cn2N2C[C@@H]3CC[C@@H](C3)[C@@H]12 [II-023]	74.2	9.9	15	
C[C@H]1CC[C@H]2N(C)C(=O)c3c(O)c(=O)c(C(=O)NCc4cccc(Cl)c4F)cn3N2C1 [II-019]	84.1	7.3	7	
CCN1C(=O)c2c(O)c(=O)c(C(=O)NCc3ccc(F)cc3F)cn2N2C[C@@H]3CC[C@@H](O3)[C@@H]12 [II-088]	101	47	45	
CN1C(=O)c2c(O)c(=O)c(C(=O)NCc3c(F)cc(F)cc3F)cn2N2CCCC[C@@H]12 [II-089]	105	38	14	
COC[C@@H]1CC[C@H]2N(C(C)C)C(=O)c3c(O)c(=O)c(C(=O)NCc4ccccc4F)cn3N12 [II-005]	80.8	4.6	7.7	
C[C@H]1CC[C@H]2N(C)C(=O)c3c(O)c(=O)c(C(=O)NCc4ccc(Cl)cc4F)cn3N2C1 [II-063]	95.7	38	25	
CCN1C(=O)c2c(O)c(=O)c(C(=O)NCc3c(F)cc(F)cc3F)cn2N2CCCC[C@@H]12 [Compound I-016]	88	13	10	
CCN1C(=O)c2c(O)c(=O)c(C(=O)NCc3ccc(F)cc3)cn2N2CCCC[C@@H]12 [II-070]	100	32	36	
CN1C(=O)c2c(O)c(=O)c(C(=O)NCc3cccc(Cl)c3F)cn2N2C[C@@H]3CC[C@@H](O3)[C@@H]12 [II-058]	97.7	25	15	
CN1C(=O)c2c(O)c(=O)c(C(=O)NCc3cccc(Cl)c3F)cn2N2CCOC[C@@H]12 [II-094]	97.2	50	27	
CC(C)N1C(=O)c2c(O)c(=O)c(C(=O)NCc3ccc(F)cc3F)cn2N2CCOC[C@@H]12 [II-021]	87.5	8.1	14	

Source: patent publication US12564595B2, “Prophylactic and therapeutic pharmaceutical agent for HIV infectious diseases characterized by comprising combination of integrase inhibitor and anti-HIV agent” (Shionogi & Co., Ltd., priority 2019, dated 2026)
